Measured values as given in ChEMBL document CHEMBL1131271, “Potent inhibitors of the MAP kinase p38” (Bioorg Med Chem Lett, 1998).

What follows are molecules tested against MAP kinase p38 (Homo sapiens, UniProt O15264+Q15759+Q16539+P53778) (assay: Inhibition of TNF-alpha production by lipopolysaccharide-stimulated human peripheral blood mononuclear cells).
Assay type: functional
`Nc1ccc2c(-c3ccncc3)c(-c3ccc(F)cc3)[nH]c2n1` showed an IC50 of 37 nM.
With `COc1cccc(COc2cc(N)[nH]c3nc(-c4ccc(F)cc4)c(-c4ccncc4)c2-3)c1` the IC50 was 1.5 nM.
With `Nc1cc(OCCCc2ccccc2)c2c(-c3ccncc3)c(-c3ccc(F)cc3)[nH]c2n1` the IC50 was 9 nM.
For `CCCCOc1cc(N)[nH]c2nc(-c3ccc(F)cc3)c(-c3ccncc3)c1-2`, the IC50 was 4 nM.
Work on `Nc1cc(OCc2ccccc2)c2c(-c3ccncc3)c(-c3ccc(F)cc3)[nH]c2n1` yielded an IC50 of 0.91 nM.
